Source: ChEMBL document CHEMBL3739403 (Bioorg Med Chem, 2016)

What follows are compounds tested against T1, Prothrombin (Homo sapiens, UniProt P00734) (assay: Inhibition of human thrombin preincubated for 10 mins using Ac-FVR-AMC as substrate by […] assay). Conditions: read-out: IC50.

IC50 [nM] | SMILES
3.95 | Cn1c(CNc2ccc(C(=N)N)cc2)nc2cc(C(=O)N(CCC(=O)O)c3ccc(F)c(F)c3)ccc21
4.96 | Cn1c(CNc2ccc(C(=N)N)cc2)nc2cc(C(=O)N(CCC(=O)O)c3ccccc3C(F)(F)F)ccc21
2.61 | CCCCCCOC(=O)NC(=N)c1ccc(NCc2nc3cc(C(=O)N(CCC(=O)OCC)c4ccccn4)ccc3n2C)cc1 [DABIGATRAN ETEXILATE]

Same assay, conditions: read-out: pIC50 (converted)

IC50 [nM] | SMILES
3.98 | Cn1c(CNc2ccc(C(=N)N)cc2)nc2cc(C(=O)N(CCC(=O)O)c3ccc(F)c(F)c3)ccc21
5.01 | Cn1c(CNc2ccc(C(=N)N)cc2)nc2cc(C(=O)N(CCC(=O)O)c3ccccc3C(F)(F)F)ccc21
2.63 | CCCCCCOC(=O)NC(=N)c1ccc(NCc2nc3cc(C(=O)N(CCC(=O)OCC)c4ccccn4)ccc3n2C)cc1 [DABIGATRAN ETEXILATE]

What follows are compounds tested against T1, Prothrombin (assay: Inhibition of thrombin (unknown origin)). Conditions: not given.

IC50 [nM] | SMILES
6.17 | CCn1c(CNc2ccc(C(=N)N)cc2)nc2cc(C(=O)N(CCC(=O)O)c3ccccc3C(F)(F)F)ccc21
36.3 | CCCCn1c(CNc2ccc(C(=N)N)cc2F)nc2cc(C(=O)N(CCC(=O)O)c3ccc(F)c(Cl)c3)ccc21
18.6 | CC(C)n1c(CNc2ccc(C(=N)N)cc2)nc2cc(C(=O)N(CCC(=O)O)c3ccc(F)c(Cl)c3)ccc21
12.3 | Cn1c(CNc2ccc(C(=N)N)cc2)nc2cc(C(=O)N(CCC(=O)O)c3cccc(C(F)(F)F)c3)ccc21
26.3 | CCn1c(CNc2ccc(C(=N)N)cc2)nc2cc(C(=O)N(CCC(=O)O)c3cccc(C(F)(F)F)c3)ccc21
39.8 | CCCCn1c(CNc2ccc(C(=N)N)cc2)nc2cc(C(=O)N(CCC(=O)O)c3ccc(F)c(Cl)c3)ccc21
27.5 | N=C(N)c1ccc(NCc2nc3cc(C(=O)N(CCC(=O)O)c4ccc(F)c(Cl)c4)ccc3n2C2CC2)cc1
7.94 | CCn1c(CNc2ccc(C(=N)N)cc2)nc2cc(C(=O)N(CCC(=O)O)c3cc(F)cc(F)c3)ccc21
11.5 | Cn1c(CNc2ccc(C(=N)N)cc2F)nc2cc(C(=O)N(CCC(=O)O)c3ccc(F)c(Cl)c3)ccc21
3.55 | CCn1c(CNc2ccc(C(=N)N)cc2)nc2cc(C(=O)N(CCC(=O)O)c3ccccc3F)ccc21
5.37 | Cn1c(CNc2ccc(C(=N)N)cc2)nc2cc(C(=O)N(CCC(=O)O)c3cccc(F)c3)ccc21
11 | CCCn1c(CNc2ccc(C(=N)N)cc2)nc2cc(C(=O)N(CCC(=O)O)c3ccc(F)c(Cl)c3)ccc21
24 | Cc1ccnc(N(CCC(=O)O)C(=O)c2ccc3c(c2)nc(CNc2ccc(C(=N)N)cc2F)n3C)c1
117 | CCCCCn1c(CNc2ccc(C(=N)N)cc2)nc2cc(C(=O)N(CCC(=O)O)c3ccc(F)c(Cl)c3)ccc21
9.55 | CCn1c(CNc2ccc(C(=N)N)cc2)nc2cc(C(=O)N(CCC(=O)O)c3ccc(F)c(F)c3)ccc21
17.4 | CC(C)n1c(CNc2ccc(C(=N)N)cc2F)nc2cc(C(=O)N(CCC(=O)O)c3ccc(F)c(Cl)c3)ccc21
26.9 | N=C(N)c1ccc(NCc2nc3cc(C(=O)N(CCC(=O)O)c4ccc(F)c(Cl)c4)ccc3n2C2CC2)c(F)c1
4.27 | CCn1c(CNc2ccc(C(=N)N)cc2)nc2cc(C(=O)N(CCC(=O)O)c3ccc(F)cc3)ccc21
10.5 | Cn1c(CNc2ccc(C(=N)N)cc2)nc2cc(C(=O)N(CCC(=O)O)c3cc(F)cc(F)c3)ccc21
19.1 | CCn1c(CNc2ccc(C(=N)N)cc2F)nc2cc(C(=O)N(CCC(=O)O)c3cc(C)ccn3)ccc21
28.2 | CCCn1c(CNc2ccc(C(=N)N)cc2F)nc2cc(C(=O)N(CCC(=O)O)c3ccc(F)c(Cl)c3)ccc21
7.41 | CCn1c(CNc2ccc(C(=N)N)cc2)nc2cc(C(=O)N(CCC(=O)O)c3cccc(F)c3)ccc21
117 | CCn1c(CNc2ccc(C(=N)N)cc2)nc2cc(C(=O)N(CCC(=O)O)c3ccc(OC(F)(F)F)cc3)ccc21
174 | CCCCCn1c(CNc2ccc(C(=N)N)cc2F)nc2cc(C(=O)N(CCC(=O)O)c3ccc(F)c(Cl)c3)ccc21
8.91 | CCn1c(CNc2ccc(C(=N)N)cc2)nc2cc(C(=O)N(CCC(=O)O)c3ccc(F)c(Cl)c3)ccc21
200 | CCn1c(CNc2ccc(C(=N)N)cc2)nc2cc(C(=O)N(CCC(=O)O)c3ccc(C(F)(F)F)cc3)ccc21
8.32 | Cn1c(CNc2ccc(C(=N)N)cc2)nc2cc(C(=O)N(CCC(=O)O)c3ccc(F)c(Cl)c3)ccc21
2.04 | CCn1c(CNc2ccc(C(=N)N)cc2F)nc2cc(C(=O)N(CCC(=O)O)c3ccc(F)c(Cl)c3)ccc21
